Test results as given in US9128100B2, “Non-invasive diagnostic method for the evaluation of intestinal lactase deficiency (hypolactasia)” (Venter Pharma, S.L., priority 2012, dated 2015).
Values joined by “and” are separate entries in the source; they are usually repeats but may differ in a detail not shown here. Equal values may be shown once. “Also recorded” adds a separate entry of the source.

Experiments:
intestinal lactase [1] = target: T1, intestinal lactase (Homo sapiens, UniProt P09848); assay: Lower limits of normal (cut-off points) of xylose in urine and blood of healthy controls after 4-GX; type: in vivo; details: mean minus 1.96 SD of healthy controls
T1 construct: after its oral administration it is hydrolysed by the intestinal mucosa enzyme; from tissue; host or cells: small-intestinal mucosa (enterocyte brush border) of living human volunteers and patients, in vivo
Description: The indicator of the lower limit of normal was taken to be the difference between the average xylose concentrations in blood and/or the difference between the average total amounts of xylose excreted in the urine, and 1.96 times the standard deviation.
The data obtained with the 4-GX administration test in the healthy control group was used to determine the lower limits of normal of xylose in urine and blood (cut-off points). The cut-off points for the 4-GX test in urine were obtained for times of 4 hours and 5 hours because, as already seen in example 2, these times are the best for determining the amount of xylose excreted in urine following 4-GX administration and performing a reliable diagnosis of lactase deficiency. Similarly, the cut-off points for the determination of the blood xylose concentration following 4-GX administration were obtained for the time of 90 minutes following ingestion of the disaccharide. The difference between the average xylose concentration (in blood and the total quantity of xylose excreted in the urine) and 1.96 times the standard deviation was used for the lower limit of normal indicator. The lower limit of xylose accumulated in 4-hour urine was 27.58 mg; xylose accumulated in 5-hour urine was 37.87 mg and the increase in the concentration of plasma xylose after 90 minutes following ingestion of the product, compared to basal blood, was 0.97 mg/dL.

intestinal lactase [2] = target: T1, intestinal lactase; assay: 4-GX test in 90-minutes blood, patients with symptoms suggestive of lactose intolerance; type: in vivo
Protocol: The diagnostic tests to which these patients were subjected were: • Intestinal biopsy: determining intestinal lactase activity therein. • Hydrogen breath test after the oral administration to patients of 50 g of lactose. While this test was being carried out, several capillary-blood glucose test (Glycemia tests) were carried out, calculating the highest increase observed in the blood glucose concentration compared to basal glucose level before starting the test. • 4-GX test in total urine at 0-4 and 0-5 hours, which was orally administered to patients 0.5 g of this product (or 0.45 g in a 4-GX sample including 10 wt % water), collecting the total urine accumulated over 0-4 h and 0-5 h following the administration of 4-GX and determining the amount of excreted xylose in both volumes of urine. • 4-GX test in blood which was orally administered to patients 3 g of this product (or 2.7 g in a 4-GX sample including 10 wt % water) to determine the concentration of plasma xylose in a blood sample 90 minutes after ingestion of the product. The concentration obtained was compared to a basal blood sample extracted before ingestion of 4-GX.
The 4-GX was orally administered in a single dose dissolved in 100 ml of water.
The blood samples were centrifuged to obtain plasma in which the analysis of the amount of xylose present was performed.
From the data obtained from the various urine tests for intestinal lactase deficiency following oral ingestion of 4-GX described in the present invention, a descriptive statistical analysis was performed of the amount of xylose excreted in the urine up to 4 hours and up to 5 hours following said administration. The same was done with the blodd test for intestinal lactase activity following oral ingestion of 4-GX, where descriptive statistical analysis was performed on the amount of xylose present in the plasma of subjects at 90 minutes following administration of 4-GX. The net increase in the plasma xylose concentration compared to basal values was also calculated.
To obtain the statistical parameters of lactase determination using the various 4-GX tests described in the present invention and later to compare them with the results obtained from the intestinal biopsy test, hydrogen in exhaled air test and capillary-blood glucose test, the normal limits of the measurement of the total amount of xylose excreted in 4-hour and 5-hour urine and the concentration of blood xylose after 90 minutes following ingestion of 4-GX described in Table 5 were used. The normal limits for the other tests were those used in common clinical practice for the diagnosis of lactose intolerance (Arola, H. (1994) Diagnosis of hypolactasia and lactose malabsorption. Scand. J. Gastroenterol. […] (Suppl), 26-35), which are:
For the measurement of lactase by intestinal biopsy, the lower normal limit is established at 10 units/g protein, with values less than this being considered positive.

[3] = Safety and tolerance of the 4-GX doses; type: in vivo, human; details: all doses of 4-GX used (0.125 g to 6 g oral)
Protocol: Two groups of subjects were selected. […] Firstly, the lowest suitable oral dose of 4-GX administered to healthy volunteers was determined that enabled reliable detection (in terms of accuracy and reproducibility) of xylose levels in urine and blood via the analytical method to be used. In addition, the tolerance of these subjects to the various doses of 4-GX used in the test and the pharmacokinetics for each dose administered were analysed, both in urine and blood. The doses of 4-GX used were: 0.125 g, 0.250 g, 0.5 g, 1 g, 3 g and 6 g in addition to placebo in 12 healthy volunteers with washout period between doses of between three and seven days. It should be appreciated that the 4-GX doses can include small quantities of water which remain subsequent to the drying process of the 4-GX product. For example, the 4-GX product can contain about 8 wt % to about 12 wt %, most likely about 10 wt % water, based on the total weight of the product. Accordingly, the aforementioned 4-GX doses administered would actually include 0.1125 g, 0.225 g, 0.45 g, 0.9 g, 2.7 g and 5.4 g of actual 4-GX product, respectively, if they contain 10 wt % water. […] In each study period, an ascending dose of 4-GX was administered and the serum and urine concentrations of xylose were measured at various times up to 8 hours following the administration of the drug.

[4] = 3 g 4-GX, 90-min blood, lactase in intestinal biopsy as gold standard
[5] = 3 g 4-GX, plasma at 90 min, cut-off 0.97 mg/dL, 205 patients
[6] = blood, after correcting biopsy diagnosis
[7] = blood, after correction of the biopsy diagnostic result (five discrepancies)
[8] = blood, after correction of the biopsy diagnostic result (four discrepancies)
[9] = blood, final criteria of Table 9

T1 sequence (P09848 869-1927): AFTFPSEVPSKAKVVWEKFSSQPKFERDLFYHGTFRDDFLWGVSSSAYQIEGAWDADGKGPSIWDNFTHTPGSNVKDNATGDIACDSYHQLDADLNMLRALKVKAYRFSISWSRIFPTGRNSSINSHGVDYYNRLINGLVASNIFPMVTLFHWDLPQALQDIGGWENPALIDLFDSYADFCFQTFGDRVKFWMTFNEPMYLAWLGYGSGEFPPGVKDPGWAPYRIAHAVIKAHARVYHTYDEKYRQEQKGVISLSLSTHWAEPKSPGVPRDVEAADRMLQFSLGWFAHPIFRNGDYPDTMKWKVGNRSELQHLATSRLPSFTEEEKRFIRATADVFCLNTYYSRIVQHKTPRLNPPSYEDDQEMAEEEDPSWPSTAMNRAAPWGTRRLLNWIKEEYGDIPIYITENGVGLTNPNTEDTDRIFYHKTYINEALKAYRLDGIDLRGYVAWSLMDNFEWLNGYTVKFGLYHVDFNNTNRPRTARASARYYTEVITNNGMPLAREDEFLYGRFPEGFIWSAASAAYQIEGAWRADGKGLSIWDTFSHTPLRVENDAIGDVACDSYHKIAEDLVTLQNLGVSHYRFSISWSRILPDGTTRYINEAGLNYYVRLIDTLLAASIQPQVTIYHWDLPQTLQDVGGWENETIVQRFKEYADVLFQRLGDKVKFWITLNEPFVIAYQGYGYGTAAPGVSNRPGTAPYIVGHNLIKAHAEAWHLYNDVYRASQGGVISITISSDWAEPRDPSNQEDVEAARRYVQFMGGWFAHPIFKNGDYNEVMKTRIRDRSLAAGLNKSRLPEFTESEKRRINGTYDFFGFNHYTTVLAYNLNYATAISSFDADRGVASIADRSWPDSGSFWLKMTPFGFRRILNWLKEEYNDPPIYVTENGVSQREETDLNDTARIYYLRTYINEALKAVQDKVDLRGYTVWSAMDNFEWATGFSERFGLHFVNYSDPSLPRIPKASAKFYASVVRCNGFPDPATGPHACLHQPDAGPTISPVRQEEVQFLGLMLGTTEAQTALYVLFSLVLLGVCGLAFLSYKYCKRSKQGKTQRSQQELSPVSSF

O=C[C@H](O)[C@@H](O)[C@@H](CO)O[C@@H]1O[C@H](CO)[C@H](O)[C@H](O)[C@H]1O [4-GX, 4-O-β-galactopyranosyl-D-xylose]
Cut-off point, total xylose in 4-hour urine (intestinal lactase [1]; 4-GX 0.125 g): 11.88 mg
Cut-off point, total xylose in 5-hour urine (intestinal lactase [1]; 4-GX 0.125 g): 16.72 mg
Cut-off point, total xylose in 4-hour urine (intestinal lactase [1]; 4-GX 0.250 g): 20.62 mg
Cut-off point, total xylose in 5-hour urine (intestinal lactase [1]; 4-GX 0.250 g): 28.08 mg
Cut-off point, total xylose in 4-hour urine (intestinal lactase [1]; 4-GX 0.5 g): 27.58 mg
Cut-off point, total xylose in 5-hour urine (intestinal lactase [1]; 4-GX 0.5 g): 37.87 mg
Cut-off point, xylose concentration in 90-min blood (increase over basal) (intestinal lactase [1]; 4-GX 0.5 g): 0.41 mg/dL
Cut-off point, total xylose in 4-hour urine (intestinal lactase [1]; 4-GX 1 g): 33.04 mg
Cut-off point, total xylose in 5-hour urine (intestinal lactase [1]; 4-GX 1 g): 41.35 mg
Cut-off point, xylose concentration in 90-min blood (increase over basal) (intestinal lactase [1]; 4-GX 1 g): 0.53 mg/dL
Cut-off point, total xylose in 4-hour urine (intestinal lactase [1]; 4-GX 3 g): 45.58 mg
Cut-off point, total xylose in 5-hour urine (intestinal lactase [1]; 4-GX 3 g): 69.57 mg and 69.75 mg
Cut-off point, xylose concentration in 90-min blood (increase over basal) (intestinal lactase [1]; 4-GX 3 g): 0.97 mg/dL
Cut-off point, total xylose in 4-hour urine (intestinal lactase [1]; 4-GX 6 g): 87.96 mg
Cut-off point, total xylose in 5-hour urine (intestinal lactase [1]; 4-GX 6 g): 110.12 mg
Cut-off point, xylose concentration in 90-min blood (increase over basal) (intestinal lactase [1]; 4-GX 6 g): 1.44 mg/dL
Negative predictive value (intestinal lactase [2]; [4]): 91.8% and 91.75%
Positive predictive value (intestinal lactase [2]; [4]): 93.4%
Sensitivity (intestinal lactase [2]; [4]): 92.5% and 92.52%
Specificity (intestinal lactase [2]; [4]): 92.7% and 92.71%
No. Negative (intestinal lactase [2]; [5]): 97
No. Positive (patients presenting intestinal lactase deficiency) (intestinal lactase [2]; [5]): 106
Percentage of patients negative (intestinal lactase [2]; [5]): 48%
Percentage of patients positive (intestinal lactase [2]; [5]): 51.7% and 52%
sensitivity calculated using the ROC curves (intestinal lactase [2]; blood samples): 92.5%
specificity calculated using the ROC curves (intestinal lactase [2]; blood samples): 92.7%
range of recalculated sensitivity, specificity, positive and negative predictive values (intestinal lactase [2]; blood test, after correcting biopsy diagnosis): 97.94-98.11
false negatives (intestinal lactase [2]; [6]): 1.89%
negative likelihood ratio (intestinal lactase [2]; [6]): 0.019
positive likelihood ratio (intestinal lactase [2]; [6]): 47.585
Negative predictive value (intestinal lactase [2]; [7]): 97.94%
Positive predictive value (intestinal lactase [2]; [7]): 98.11%
Sensitivity (intestinal lactase [2]; [7]): 98.11%
Specificity (intestinal lactase [2]; [7]): 97.94%
Negative predictive value (intestinal lactase [2]; [8]): 98.97%
Positive predictive value (intestinal lactase [2]; [8]): 99.06%
Sensitivity (intestinal lactase [2]; [8]): 99.06%
Specificity (intestinal lactase [2]; [8]): 98.97%
area under the ROC curve (intestinal lactase [2]; blood, biopsy as gold standard): 0.9268
false negatives (intestinal lactase [2]; blood, biopsy as gold standard): 7.5%
false positives (intestinal lactase [2]; blood, biopsy as gold standard): 7.3%
concordant positive results, percentage (intestinal lactase [2]; [9]): 97.2%
final number of concordant positive results (intestinal lactase [2]; [9]): 104
negative results (concordant), percentage (intestinal lactase [2]; [9]): 96.9%
number of negative results (concordant) (intestinal lactase [2]; [9]): 95
adverse reactions, safety and tolerance [3]: safe and innocuous; also recorded: no clinically significant adverse reactions were found
